In patent US20150219543A1, “CELL EVALUATION METHOD” (HAMAMATSU PHOTONICS K.K., priority 2014, published 2015):

System: human living fibroblast-derived 253G1 iPS cell strain
Experiment: Physical cell length (cell thickness) by reflecting quantitative phase microscope
Format: cell-based
Settings: 253G1 iPS cells on feeder, medium with 12.5 μM retinoic acid from 2nd day after seeding, further cultured 4 days (differentiated cell)
Procedure: On a 35 mm-diameter glass bottom dish with antireflection coating, a human living fibroblast-derived 253G1 iPS cell strain was seeded at 10-20 colonies/dish, and cultured on a feeder using a medium containing a final concentration of 4 ng/mL of human basic fibroblast growth factor (Primate ES Medium, ReproCELL Incorporated, Trade name: RCHEMD001). The size of one colony was approximately 200 μm. For the feeder cell, a mouse lung fibroblast cell was used. The cell was cultured until the 3rd day after the seeding. The medium was exchanged once a day.
The sample for differentiation of the iPS cell was transferred to a medium containing a final concentration of 4 ng/mL of human basic fibroblast growth factor and 12.5 μM of retinoic acid (Primate ES Medium) on the 2nd day after the seeding, and further cultured for 4 days. Generally, retinoic acid is used as a reagent for inducing differentiation. […]
For the cells in a 60 μm×80 μm visual field, three-dimensional data was obtained at intervals of 0.125 μm in horizontal direction and 0.32 μm in vertical direction using a reflecting quantitative phase microscope, and a tomographic image was produced from the obtained data. […] From the obtained bottom and surface shapes, a cell thickness (physical length) was measured to calculate a mean value.

**Q.** Which “Mean value of the physical cell length” value does the source give for `CC1=C(/C=C/C(C)=C/C=C/C(C)=C/C(=O)O)C(C)(C)CCC1` [retinoic acid] here?
**A.** 6.25 μm
